Measured values as given in US20150056273A1 (National Taiwan University of Science and Technology, priority 2013, published 2015).

Columns and labels:
[1] = percutaneous penetration experiments with different microbubble sizes, pigskin; type: in vitro ADME, pig; settings: microbubbles 1 minute, then dye with ultrasound 15 minutes
[2] = penetration-through experiments with different microbubble sizes, agar tissue simulator; type: in vitro ADME; settings: 1 minute, 0.25 wt % Evans blue, microbubbles 2×10^8 particles/ml

penetration depth of the dye ([1]; ultrasound 1 W (1 W/cm^2)): 12.78 μm | penetration depth of the dye ([1]; ultrasound 2 W (2 W/cm^2)): 14.17 μm | penetration depth of the dye ([1]; ultrasound 3 W (3 W/cm^2)): 15.5 μm | penetration depth of the dye ([2]; ultrasound 1 W (1 W/cm^2)): 373 ± 23 μm | penetration depth of the dye ([2]; ultrasound 2 W (2 W/cm^2)): 354 ± 14 μm | penetration depth of the dye ([2]; ultrasound 3 W (3 W/cm^2)): 379 ± 20 μm
Compound: Cc1cc(-c2ccc(/N=N/c3ccc4c(S(=O)(=O)O)cc(S(=O)(=O)O)c(N)c4c3O)c(C)c2)ccc1/N=N/c1ccc2c(S(=O)(=O)O)cc(S(=O)(=O)O)c(N)c2c1O [U only, Evans blue]
